Assays:
Jurkat cells = assay: IL-2 secretion assay in Jurkat cells activated with CD3/CD28 T Cell Activator; type: cell-based; conditions: Homo sapiens; Jurkat cells, CD3/CD28 T Cell Activator, 24 h, IL-2 AlphaLISA; read-out: IL-2 Secretion (EC50)
Experimental: Certain compounds were also evaluated in an IL-2 secretion assay. On the day of the assay, a 16 point, 1:2 master serial dilution of each compound was prepared in Opti-MEM to span a final concentration range of 10 μM to 300 pM. Assays were set up in CORNING® tissue culture-treated 384-well microplates containing 60 nL of each dilution. Jurkat cells grown in RPMI-1640 supplemented with 10% FBS, 1% Glutamax, and 1% Pen/Strep were collected, resuspended in Opti-MEM. 50,000 cells/well and added to the compound plates. After a short spin (1200 rpm for 1 min), the plates were incubated at 37° C. for 1 hour. The cells were activated by adding 15 μL of IMMUNOCULT™ Human CD3/CD28 T Cell Activator (STEMCELL Technologies) diluted in Opti-MEM. After 24 h of incubation at 37° C., aliquots of culture supernatants were transferred to OptiPlate-384 (PerkinElmer) microplates. The level of IL-2 secretion in the supernatants was then determined using the IL-2 (human) AlphaLISA Detection Kit (PerkinElmer) according to the manufacturer's recommendations. The AlphaLISA signal was measured using an EnVision plate reader (PerkinElmer). EC50 values were determined by fitting the data to a standard 4-parameter logistic equation. See Table 7 for data for select compounds (IL-2 Secretion (EC50)).

Cbl-b = target: T1, Cbl-b (Homo sapiens, UniProt Q13191); assay: Cbl-b probe displacement HTRF binding assay; conditions: 0.4 nM Cbl-b, 150 nM BODIPY probe
T1 construct: biotin (biotinylated protein)
T1 sequence (Q13191 whole entry, species assumed): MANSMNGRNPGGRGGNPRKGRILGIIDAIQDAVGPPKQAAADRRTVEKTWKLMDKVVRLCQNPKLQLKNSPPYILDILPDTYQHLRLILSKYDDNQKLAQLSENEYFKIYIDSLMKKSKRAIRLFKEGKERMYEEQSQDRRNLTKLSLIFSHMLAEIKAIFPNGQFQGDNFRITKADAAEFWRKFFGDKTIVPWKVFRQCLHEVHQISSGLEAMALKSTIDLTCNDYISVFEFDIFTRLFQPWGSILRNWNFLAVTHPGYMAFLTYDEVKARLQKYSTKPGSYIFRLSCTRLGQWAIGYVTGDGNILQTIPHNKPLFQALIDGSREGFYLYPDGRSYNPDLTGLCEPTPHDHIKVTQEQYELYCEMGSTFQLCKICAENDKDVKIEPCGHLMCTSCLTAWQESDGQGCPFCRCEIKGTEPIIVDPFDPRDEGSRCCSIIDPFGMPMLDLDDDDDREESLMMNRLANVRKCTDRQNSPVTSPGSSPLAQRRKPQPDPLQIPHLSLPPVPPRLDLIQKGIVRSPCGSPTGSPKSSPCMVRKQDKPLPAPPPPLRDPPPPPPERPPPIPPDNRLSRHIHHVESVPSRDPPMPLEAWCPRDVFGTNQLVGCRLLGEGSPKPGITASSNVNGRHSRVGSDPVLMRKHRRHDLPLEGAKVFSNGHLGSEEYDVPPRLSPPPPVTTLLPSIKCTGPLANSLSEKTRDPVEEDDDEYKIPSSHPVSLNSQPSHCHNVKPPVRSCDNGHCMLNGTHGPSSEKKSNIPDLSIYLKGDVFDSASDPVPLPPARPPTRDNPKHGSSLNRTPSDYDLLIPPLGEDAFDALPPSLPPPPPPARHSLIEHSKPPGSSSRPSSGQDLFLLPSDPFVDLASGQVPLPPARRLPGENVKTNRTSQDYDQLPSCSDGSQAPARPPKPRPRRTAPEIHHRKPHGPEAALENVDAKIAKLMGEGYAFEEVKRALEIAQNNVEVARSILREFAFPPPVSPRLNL
Method in brief: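 Binding IC50 from four-parameter fit of HTRF signal loss, normalised to DMSO (0%) and no-protein (100%) wells. Biotinylated Cbl-b 0.4 nM was preincubated 60 min with compound (20-point 1:2 dilution) before 15 min with 150 nM BODIPY probe; Tb-streptavidin detection.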

SMILES	EC50 (Jurkat cells)	IC50 (Cbl-b)
COCCNCc1cc(C(=O)Nc2cc(-c3ccc(C#N)cc3-c3nncn3C)cc(C3CC3)n2)c(=O)n(C2CC2)c1 [Example 3, N-[4-[4-cyano-2-(4-methyl-1,2,4-triazol-3-yl)phenyl]-6-cyclopropylpyridin-2-yl]-1-cyclopropyl-5-[(2-methoxyethylamino)methyl]-2-oxopyridine-3-carboxamide]	< 100 nM	< 100 nM
COCCNCc1cc(C(=O)Nc2cc(-c3ccc(F)cc3-c3nncn3C)cc(C3CC3)n2)c(=O)n(C2CC2)c1 [Example 4, 1-cyclopropyl-N-[6-cyclopropyl-4-[4-fluoro-2-(4-methyl-1,2,4-triazol-3-yl)phenyl]pyridin-2-yl]-5-[(2-methoxyethylamino)methyl]-2-oxopyridine-3-carboxamide]	< 100 nM	< 100 nM
CCOc1cc(-c2ccc(F)cc2-c2nncn2C)cc(NC(=O)c2cc(CNCCOC)cn(C3CC3)c2=O)n1 [Example 5, 1-cyclopropyl-N-[6-ethoxy-4-[4-fluoro-2-(4-methyl-1,2,4-triazol-3-yl)phenyl]pyridin-2-yl]-5-[(2-methoxyethylamino)methyl]-2-oxopyridine-3-carboxamide]	< 100 nM	< 100 nM
COCCN(C)Cc1cc(C(=O)Nc2cc(-c3ccc(F)cc3-c3nncn3C)cc(C3CC3)n2)c(=O)n(C2CC2)c1 [Example 6, N-{6-cyclopropyl-4-[4-fluoro-2-(4-methyl-4H-1,2,4-triazol-3-yl)phenyl]-2-pyridyl}-1-cyclopropyl-5-{[(2-methoxyethyl)-N-methylamino]methyl}-2-oxo-1,2-dihydronicotinamide]	1000 to 5000 nM	< 100 nM
C[C@H]1CCCN(Cc2cc(C(=O)Nc3cc(-c4ccc(C#N)cc4-c4nncn4C(F)F)cc(C4CC4)n3)c(=O)n(C3CC3)c2)C1 [Example 7, N-(4-{4-cyano-2-[4-(difluoromethyl)-4H-1,2,4-triazol-3-yl]phenyl}-6-cyclopropyl-2-pyridyl)-5-{[(S)-3-methyl-1-piperidyl]methyl}-1-cyclopropyl-2-oxo-1,2-dihydronicotinamide]	< 100 nM	< 100 nM
C[C@H]1CCCN(Cc2cc(C(=O)Nc3cc(-c4ccc(C#N)cc4-c4nncn4C(F)F)cc(N)n3)c(=O)n(C3CC3)c2)C1 [Example 8, N-(6-amino-4-{4-cyano-2-[4-(difluoromethyl)-4H-1,2,4-triazol-3-yl]phenyl}-2-pyridyl)-5-{[(S)-3-methyl-1-piperidyl]methyl}-1-cyclopropyl-2-oxo-1,2-dihydronicotinamide]	100 to 1000 nM	< 100 nM
N#Cc1ccc(-c2cc(NC(=O)c3cc(CNCCOC(F)(F)F)cn(C4CC4)c3=O)nc(C3CC3)c2)c(-c2nncn2C(F)F)c1 [Example 9, N-(4-{4-cyano-2-[4-(difluoromethyl)-4H-1,2,4-triazol-3-yl]phenyl}-6-cyclopropyl-2-pyridyl)-1-cyclopropyl-2-oxo-5-[(2-trifluoromethoxyethylamino)methyl]-1,2-dihydronicotinamide]	< 100 nM	< 100 nM
CC1(NCc2cc(C(=O)Nc3cc(-c4ccc(C#N)cc4-c4nncn4C(F)F)cc(C4CC4)n3)c(=O)n(C3CC3)c2)CCC1 [Example 10, N-(4-{4-cyano-2-[4-(difluoromethyl)-4H-1,2,4-triazol-3-yl]phenyl}-6-cyclopropyl-2-pyridyl)-1-cyclopropyl-5-[(1-methylcyclobutylamino)methyl]-2-oxo-1,2-dihydronicotinamide]	< 100 nM	< 100 nM
N#Cc1ccc(-c2cc(NC(=O)c3cc(CN4C[C@H]5CC[C@@H]4C5)cn(C4CC4)c3=O)nc(C3CC3)c2)c(-c2nncn2C(F)F)c1 [Example 11, N-(4-{4-cyano-2-[4-(difluoromethyl)-4H-1,2,4-triazol-3-yl]phenyl}-6-cyclopropyl-2-pyridyl)-5-({(1R,4S)-2-azabicyclo[2.2.1]hept-2-yl}methyl)-1-cyclopropyl-2-oxo-1,2-dihydronicotinamide]	100 to 1000 nM	< 100 nM
COCC1(NCc2cc(C(=O)Nc3cc(-c4ccc(C#N)cc4-c4nncn4C(F)F)cc(C4CC4)n3)c(=O)n(C3CC3)c2)CCC1 [Example 12, N-(4-{4-cyano-2-[4-(difluoromethyl)-4H-1,2,4-triazol-3-yl]phenyl}-6-cyclopropyl-2-pyridyl)-1-cyclopropyl-5-{[1-(methoxymethyl)cyclobutylamino]methyl}-2-oxo-1,2-dihydronicotinamide]	100 to 1000 nM	< 100 nM
COCCNCc1cc(C(=O)Nc2cc(-c3ccc(C#N)cc3-c3nncn3C(F)F)cc(C3CC3)n2)c(=O)n(C2CC2)c1 [Example 14, N-(4-{4-cyano-2-[4-(difluoromethyl)-4H-1,2,4-triazol-3-yl]phenyl}-6-cyclopropyl-2-pyridyl)-1-cyclopropyl-5-[(2-methoxyethylamino)methyl]-2-oxo-1,2-dihydronicotinamide]	< 100 nM	< 100 nM
Cn1cnnc1-c1cc(F)ccc1-c1cc(NC(=O)c2cc(CNCCC(F)(F)F)cn(C3CC3)c2=O)nc(C2CC2)c1 [Example 15, N-{6-cyclopropyl-4-[4-fluoro-2-(4-methyl-4H-1,2,4-triazol-3-yl)phenyl]-2-pyridyl}-1-cyclopropyl-2-oxo-5-[(3,3,3-trifluoropropylamino)methyl]-1,2-dihydronicotinamide]	< 100 nM	< 100 nM
CO[C@H]1CCN(Cc2cc(C(=O)Nc3cc(-c4ccc(F)cc4-c4nncn4C)cc(C4CC4)n3)c(=O)n(C3CC3)c2)C1 [Example 16, N-{6-cyclopropyl-4-[4-fluoro-2-(4-methyl-4H-1,2,4-triazol-3-yl)phenyl]-2-pyridyl}-5-{[(S)-3-methoxy-1-pyrrolidinyl]methyl}-1-cyclopropyl-2-oxo-1,2-dihydronicotinamide]	100 to 1000 nM	< 100 nM
CO[C@@H](C)CNCc1cc(C(=O)Nc2cc(-c3ccc(F)cc3-c3nncn3C)cc(C3CC3)n2)c(=O)n(C2CC2)c1 [Example 17, N-{6-cyclopropyl-4-[4-fluoro-2-(4-methyl-4H-1,2,4-triazol-3-yl)phenyl]-2-pyridyl}-5-{[(S)-2-methoxypropylamino]methyl}-1-cyclopropyl-2-oxo-1,2-dihydronicotinamide]	< 100 nM	< 100 nM
COC[C@H](C)NCc1cc(C(=O)Nc2cc(-c3ccc(F)cc3-c3nncn3C)cc(C3CC3)n2)c(=O)n(C2CC2)c1 [Example 18, N-{6-cyclopropyl-4-[4-fluoro-2-(4-methyl-4H-1,2,4-triazol-3-yl)phenyl]-2-pyridyl}-5-{[(S)-2-methoxy-1-methylethylamino]methyl}-1-cyclopropyl-2-oxo-1,2-dihydronicotinamide]	< 100 nM	< 100 nM
COC(F)(F)CNCc1cc(C(=O)Nc2cc(-c3ccc(F)cc3-c3nncn3C)cc(C3CC3)n2)c(=O)n(C2CC2)c1 [Example 19, N-{6-cyclopropyl-4-[4-fluoro-2-(4-methyl-4H-1,2,4-triazol-3-yl)phenyl]-2-pyridyl}-1-cyclopropyl-5-[(2,2-difluoro-2-methoxyethylamino)methyl]-2-oxo-1,2-dihydronicotinamide]	100 to 1000 nM	< 100 nM

Reference: US20260116868A1 (Arcus Biosciences, Inc., priority 2023, published 2026)
